Laboratory results taken from ChEMBL document CHEMBL4321825, “Discovery of a Series of 5-Azaquinazolines as Orally Efficacious IRAK4 Inhibitors Targeting MyD88L265P Mutant Diffuse Large B Cell Lymphoma” (J Med Chem, 2019).
The source made the active and inactive calls. No cut-off for these calls is given here.

Assays:
[1] = Lipophilicity, logD of the compound at pH 7.4 by shake-flask assay; format: physicochemical; conditions: buffer
[2] = target: T1, Interleukin-1 receptor-associated kinase 4 (Homo sapiens, UniProt Q9NWZ3); test: Inhibition of IRAK4 (unknown origin) in presence of 5 mM ATP by enzymatic assay
T1 sequence (Q9NWZ3 whole entry): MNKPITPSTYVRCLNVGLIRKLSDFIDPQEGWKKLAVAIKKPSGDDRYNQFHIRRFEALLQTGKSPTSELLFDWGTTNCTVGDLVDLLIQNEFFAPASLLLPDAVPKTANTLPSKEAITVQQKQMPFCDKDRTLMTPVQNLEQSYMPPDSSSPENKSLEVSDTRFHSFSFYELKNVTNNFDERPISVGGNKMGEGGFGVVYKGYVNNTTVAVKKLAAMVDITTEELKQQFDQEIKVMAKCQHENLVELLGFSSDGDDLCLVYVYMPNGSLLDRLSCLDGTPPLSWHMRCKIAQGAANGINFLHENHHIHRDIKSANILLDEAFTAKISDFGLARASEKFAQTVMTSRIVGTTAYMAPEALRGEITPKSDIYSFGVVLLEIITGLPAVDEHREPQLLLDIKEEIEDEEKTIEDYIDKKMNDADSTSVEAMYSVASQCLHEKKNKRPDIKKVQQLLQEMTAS

[3] = target: T1, Interleukin-1 receptor-associated kinase 4; test: Inhibition of IRAK4 (unknown origin) by cell based assay
[4] = Intrinsic clearance in rat hepatocytes assessed per million cells; format: ADME, cell-based, Hepatocyte; conditions: read-out: CLH
[5] = Intrinsic permeability in human Caco2 cells; format: ADME, cell-based; conditions: Caco-2
[6] = Intrinsic clearance in human hepatocytes assessed per million cells; format: ADME, cell-based, Hepatocyte; conditions: read-out: CLH
[7] = Oral bioavailability in rat at 1 mg/kg; format: ADME, organism-based; conditions: in vivo
[8] = Efflux ratio in human Caco2 cells; format: ADME, cell-based; conditions: Caco-2
[9] = Clearance in rat at 0.5 mg/kg, iv; format: ADME, organism-based; conditions: in vivo
OCI-Ly10 [10] = test: Growth inhibition of human OCI-LY10 cells at 0.3 nM incubated for 3 days by Alamar blue dye based fluorescence assay (reference value: 3%); format: functional; conditions: OCI-Ly10, 72 h, read-out: GI
OCI-Ly10 [11] = test: Growth inhibition of human OCI-LY10 cells at 2.1 nM incubated for 3 days by Alamar blue dye based fluorescence assay (reference value: 3%); format: functional; conditions: OCI-Ly10, 72 h, read-out: GI
OCI-LY19 [12] = test: Growth inhibition of human OCI-LY19 cells at 0.3 nM incubated for 3 days by Alamar blue dye based fluorescence assay (reference value: 3%); format: functional; conditions: OCI-LY19, 72 h, read-out: GI
OCI-LY19 [13] = test: Growth inhibition of human OCI-LY19 cells at 42 nM incubated for 3 days by Alamar blue dye based fluorescence assay (reference value: 3%); format: functional; conditions: OCI-LY19, 72 h, read-out: GI
OCI-Ly10 [14] = test: Growth inhibition of human OCI-LY10 cells at 10 nM incubated for 3 days by Alamar blue dye based fluorescence assay (reference value: 3%); format: functional; conditions: OCI-Ly10, 72 h, read-out: GI
OCI-LY19 [15] = test: Growth inhibition of human OCI-LY19 cells at 4.2 nM incubated for 3 days by Alamar blue dye based fluorescence assay (reference value: 3%); format: functional; conditions: OCI-LY19, 72 h, read-out: GI
OCI-Ly10 [16] = test: Growth inhibition of human OCI-LY10 cells at 4.2 nM incubated for 3 days by Alamar blue dye based fluorescence assay (reference value: 3%); format: functional; conditions: OCI-Ly10, 72 h, read-out: GI
OCI-Ly10 [17] = test: Growth inhibition of human OCI-LY10 cells at 42 nM incubated for 3 days by Alamar blue dye based fluorescence assay (reference value: 3%); format: functional; conditions: OCI-Ly10, 72 h, read-out: GI
OCI-LY19 [18] = test: Growth inhibition of human OCI-LY19 cells at 2.1 nM incubated for 3 days by Alamar blue dye based fluorescence assay (reference value: 3%); format: functional; conditions: OCI-LY19, 72 h, read-out: GI
OCI-Ly10 [19] = test: Antitumor activity against human OCI-LY10 cells xenografted in CB.17 SCID mouse assessed as induction of tumor stasis at 12 mg/kg, po QD dosed 34 days after tumor cell inoculation; format: functional, organism-based
OCI-LY19 [20] = test: Growth inhibition of human OCI-LY19 cells at 10 nM incubated for 3 days by Alamar blue dye based fluorescence assay (reference value: 3%); format: functional; conditions: OCI-LY19, 72 h, read-out: GI

Structure (SMILES)	logD [1]	IC50 [2]	IC50 [3]	hepatocyte CLint [4]	Papp [5]	hepatocyte CLint [6]	efflux ratio [8]	other results
COC(=O)N1CCN([C@H]2CC[C@H](Nc3nc(Nc4cnn(C)c4)nc4ccc(C#N)nc34)CC2)CC1	2.7	5 nM	48 nM	2.6 µL/min/1e6 cells				
COC(=O)N1CCN([C@H]2CC[C@H](Nc3nc(Nc4cnn(C)c4)nc4ccc(C(C)(C)C#N)nc34)CC2)CC1	3	69 nM	1600 nM	18 µL/min/1e6 cells				
COC(=O)N1CCN([C@H]2CC[C@H](Nc3nc(Nc4cnn(C)c4)nc4ccc(C#N)cc34)CC2)CC1	3.2	1 nM	34 nM	5.4 µL/min/1e6 cells	3 ×10⁻⁶ cm/s	< 1 µL/min/1e6 cells	46	bioavailability [7]: 10%; clearance [9]: 11 mL/min/kg
C=CC(=O)N1CCC[C@@H](n2nc(-c3ccc(Oc4ccccc4)cc3)c3c(N)ncnc32)C1 [IBRUTINIB]								inhibition of growth at 0.0003 µM (OCI-Ly10 [10]): 5%; inhibition of growth at 0.0021 µM (OCI-Ly10 [11]): 36%; inhibition of growth at 0.0003 µM (OCI-LY19 [12]): 3%; inhibition of growth at 0.042 µM (OCI-LY19 [13]): 11%; inhibition of growth at 0.01 µM (OCI-Ly10 [14]): 83%; inhibition of growth at 0.0042 µM (OCI-LY19 [15]): 6%; inhibition of growth at 0.0042 µM (OCI-Ly10 [16]): 60%; inhibition of growth at 0.042 µM (OCI-Ly10 [17]): 93%; inhibition of growth at 0.0021 µM (OCI-LY19 [18]): 7%; Activity (OCI-Ly10 [19]): Active; inhibition of growth at 0.01 µM (OCI-LY19 [20]): 7%
COC(=O)N1CCN([C@H]2CC[C@H](Nc3ncnc4ccc(C)cc34)CC2)CC1	2.5	38 nM	200 nM	10 µL/min/1e6 cells	28 ×10⁻⁶ cm/s	< 1 µL/min/1e6 cells	0.7	
COC(=O)N1CCN([C@H]2CC[C@H](Nc3nc(Nc4cnn(C)c4)nc4ccc(C(C)C#N)nc34)CC2)CC1 (some centres not stated)	2.8	6 nM	130 nM	26 µL/min/1e6 cells				
CC(=O)N1CCN([C@H]2CC[C@H](Nc3ncnc4ccc(C#N)cc34)CC2)CC1	1.4	122 nM	420 nM	< 1 µL/min/1e6 cells	4.2 ×10⁻⁶ cm/s	< 1 µL/min/1e6 cells	19	clearance [9]: 19 mL/min/kg
